Experimental data reported in PMC7074965, “Discovery of Two Brominated Oxindole Alkaloids as Staphylococcal DNA Gyrase and Pyruvate Kinase Inhibitors via Inverse Virtual Screening” (Microorganisms, 2020).
≈ marks a conversion by molar mass, not a printed value. Where two headings read alike, the source gives them in different places.

What was measured:
[1] = tested on: Bacillus subtilis ATCC5230; test: MIC determination, twofold serial dilution; type: cell-based; conditions: read-out: MIC (B. subtilis)
Protocol: (§1) All the bacterial strains were maintained at −80 °C in 15% glycerol nutrient broth (Oxoid, Milan, Italy).
(§2) The twofold serial dilution approach was applied to determine the MICs of each compound. Each tested compound was dissolved in DMSO (Sigma, Milan, Italy) to prepare the test solutions. Many colonies of each tested bacterial strain were inoculated in 10 mL of sterilized Mueller–Hinton broth (MHB) (Oxoid) and incubated at 37 °C for 18–24 h. […] All data are reported as the mean of three independent experiments.

[2] = tested on: Escherichia coli ATCC 259228; test: MIC determination, twofold serial dilution; type: cell-based; conditions: read-out: MIC (E. coli)
Protocol: as §1, §2

[3] = tested on: Pseudomonas aeruginosa ATCC9027; test: MIC determination, twofold serial dilution; type: cell-based; conditions: read-out: MIC (P. aeruginosa)
Protocol: as §1, §2

MRSA ATCC33591 = test: MIC determination, twofold serial dilution; type: cell-based; conditions: Staphylococcus aureus, read-out: MIC (MRSA)
Protocol: as §1, §2

Pim-1 kinase = tested on: Pim-1 kinase; set-up: method as in PMID 30061488, PMID 30525020, PMID 31395834; conditions: previously reported; cited from earlier work
[4] = 24 h incubation, mean of three experiments
[5] = Bacillus subtilis, ATCC5230, 24 h incubation, mean of three experiments
[6] = Escherichia coli, ATCC259228, 24 h incubation, mean of three experiments
[7] = Pseudomonas aeruginosa, ATCC9027, 24 h incubation, mean of three experiments
[8] = Bacillus subtilis, ATCC5230, 24 h
[9] = Escherichia coli, ATCC259228, 24 h
[10] = Pseudomonas aeruginosa, ATCC9027, 24 h

Row | Compound | MIC [1, 4] | MIC [2, 4] | MIC [3, 4] | MIC [1, 5] | MIC [2, 6] | MIC (MRSA ATCC33591; [4]) | MIC [3, 7] | other results
1 | O=C1Nc2ccccc2C1=O [Compound 8, Isatine] | > 256 µM | > 256 µM | > 256 µM | – | – | – | – | –
2 | OCCc1c[nH]c2ccccc12 [Compound 14, Tryptophol] | – | – | – | > 256 µM | > 256 µM | > 256 µM | > 256 µM | –
3 | COc1ccc(C(=O)OCc2ccccc2)cc1 [Compound 22, Benzyl anisate] | > 256 µM | > 256 µM | > 256 µM | – | – | – | – | –
4 | COc1cc(/C=C/C(=O)O)cc(OC)c1O [Compound 24, Sinapic acid] | > 256 µM | > 256 µM | > 256 µM | – | – | – | – | –
5 | COc1ccc(/C=C/C(=O)/C=C2/C(=O)Nc3cc(Br)ccc32)cc1 [Compound 7, Saccharomon osp orine A] | – | – | – | > 256 µM | > 256 µM | > 256 µM | > 256 µM | Pim-1 kinase inhibition (Pim-1 kinase): potent cytotoxic Pim-1 kinase inhibitors
6 | O=Cc1cc(O)ccc1O [Compound 21, Gentisaldehyde] | > 256 µM | > 256 µM | > 256 µM | – | – | – | – | –
7 | Nc1ccccc1C(=O)O [Compound 19, Anthranilic acid] | – | – | – | – | – | – | – | MIC [1, 8]: > 256 µM; MIC [2, 9]: > 256 µM; MIC (MRSA ATCC33591; 24 h): > 256 µM; MIC [3, 10]: > 256 µM
8 | COc1cc(C(=O)O)cc(OC)c1O [Compound 18, Syringic acid] | – | – | – | > 256 µM | > 256 µM | > 256 µM | > 256 µM | –
9 | Callysterol [Compound 28] | > 256 µM | > 256 µM | > 256 µM | – | – | – | – | –
10 | O=C1Nc2ccc(Br)cc2C1=O [Compound 9, 5-Bromoisatine] | – | – | – | 128 µM (≈ 28.9 µg/mL) | > 256 µM | 128 µM (≈ 28.9 µg/mL) | > 256 µM | –
11 | CC(C)CCC[C@@H](C)[C@H]1CC[C@H]2[C@@H]3CCC4=CC(=O)CC[C@]4(C)[C@H]3CC[C@]12C [Compound 29, Cholestenone] | > 256 µM | > 256 µM | > 256 µM | – | – | – | – | –
12 | O=C(O)Cc1ccccc1 [Compound 25, Phenyl acetic acid] | – | – | – | – | – | – | – | MIC [1, 8]: > 256 µM; MIC [2, 9]: > 256 µM; MIC (MRSA ATCC33591; 24 h): > 256 µM; MIC [3, 10]: > 256 µM
13 | CC(c1c[nH]c2ccccc12)c1c[nH]c2ccccc12 [Compound 4, Vibrindole] | – | – | – | 64 µM (≈ 16.7 µg/mL) | 128 µM (≈ 33.3 µg/mL) | 64 µM (≈ 16.7 µg/mL) | > 256 µM | –
14 | O=C1Nc2cc(Br)ccc2C1=O [Compound 10, 6-Bromoisatine] | – | – | – | 128 µM (≈ 28.9 µg/mL) | 128 µM (≈ 28.9 µg/mL) | 128 µM (≈ 28.9 µg/mL) | > 256 µM | –
15 | O=C1Nc2ccccc2C1(c1c[nH]c2ccccc12)c1c[nH]c2ccccc12 [Compound 3, Trisindoline] | – | – | – | 16 µM (≈ 5.81 µg/mL) | > 256 µM | 32 µM (≈ 11.6 µg/mL) | > 256 µM | –
16 | CC(C)CCC[C@@H](C)[C@H]1CC[C@H]2[C@@H]3CC[C@H]4CC(=O)CC[C@]4(C)[C@H]3CC[C@]12C [Compound 30, 5α-Cholestanone] | > 256 µM | > 256 µM | > 256 µM | – | – | – | – | –
17 | O=Cc1ccc(O)cc1 [Compound 20, p-Hydroxy benzaldehyde] | > 256 µM | > 256 µM | > 256 µM | – | – | – | – | –

Row | Compound | MIC [1, 4] | MIC [2, 4] | MIC [3, 4] | MIC [1, 5] | MIC [2, 6] | MIC (MRSA ATCC33591; [4]) | MIC [3, 7] | other results
18 | COc1ccc(C(=O)O)cc1 [Compound 16, p-Anisic acid] | – | – | – | > 256 µM | > 256 µM | > 256 µM | > 256 µM | –
19 | Cc1c[nH]c2ccccc12 [Compound 12, Skatole] | > 256 µM | > 256 µM | > 256 µM | – | – | – | – | –
20 | COC(=O)c1ccc(OC)cc1 [Compound 17, p-Anisic acid methyl ester] | > 256 µM | > 256 µM | > 256 µM | – | – | – | – | –
21 | COc1cc(C(C)=O)cc(OC)c1O [Compound 23, Acetosyringone] | – | – | – | > 256 µM | > 256 µM | > 256 µM | > 256 µM | –
22 | CC[C@H](C=C[C@@H](C)[C@H]1CC[C@H]2[C@@H]3CC(=O)C4=CC(=O)CC[C@]4(C)[C@H]3CC[C@]12C)C(C)C [Compound 32, Stigmasta-4,22-dien-3,6-dione] | > 256 µM | > 256 µM | > 256 µM | – | – | – | – | –
23 | O=C1Nc2cc(Br)ccc2[C@@]1(O)c1c[nH]c2ccccc12 [Compound 6, (S) 6-bromo-3-hydroxy-3-(1H-indol-3-yl) indolin-2-one] | – | – | – | – | – | – | – | MIC [1, 8]: 128 µM (≈ 43.9 µg/mL); MIC [2, 9]: > 256 µM; MIC (MRSA ATCC33591; 24 h): > 256 µM; MIC [3, 10]: > 256 µM
24 | CC(=O)/C=C1/C(=O)Nc2ccc(Br)cc21 [Compound 11, (E)-5-bromo-3-(2-oxopropylidene)indolin-2-one] | > 256 µM | > 256 µM | > 256 µM | – | – | – | – | –
25 | O=C(O)c1cc(O)c2ccccc2c1O [Compound 27, 1,4 Dihydroxy-2-naphthoic acid] | > 256 µM | > 256 µM | > 256 µM | – | – | – | – | –
26 | CC1=CCC2C(CC[C@@]2(C)O)C(C)(C)C1CC[C@@H]1[C@@]2(C)CC[C@@H](O)C(C)(C)O[C@@H]2CC[C@]1(C)O (stereo partly drawn) [Compound 35, Sipholenol A] | – | – | – | > 256 µM | > 256 µM | > 256 µM | > 256 µM | –
27 | CC(=O)C[C@]1(O)C(=O)Nc2cc(Br)ccc21 [Compound 5, Convolutamidine F] | – | – | – | 128 µM (≈ 36.4 µg/mL) | > 256 µM | 128 µM (≈ 36.4 µg/mL) | > 256 µM | Pim-1 kinase inhibition (Pim-1 kinase): potent cytotoxic Pim-1 kinase inhibitors
28 | CC1=CCC2C(CC[C@@]2(C)O)C(C)(C)C1CC[C@@H]1[C@@]2(C)CCC(=O)C(C)(C)O[C@@H]2CC[C@]1(C)O (stereo partly drawn) [Compound 34, Sipholenone A] | – | – | – | > 256 µM | > 256 µM | > 256 µM | > 256 µM | –
29 | O=C(O)c1ccc2ccccc2c1O [Compound 26, 1-Hydroxy-2-naphthoic acid] | – | – | – | > 256 µM | > 256 µM | > 256 µM | > 256 µM | –
30 | CC[C@H](/C=C/[C@@H](C)[C@H]1CC[C@H]2[C@@H]3CCC4=CC(=O)CC[C@]4(C)[C@H]3CC[C@]12C)C(C)C [Compound 31, Stigmasterone] | > 256 µM | > 256 µM | > 256 µM | – | – | – | – | –
31 | CCCCCCCCCCC/C=C\CCCCC(=O)O [Compound 36, Petroselenic acid] | > 256 µM | > 256 µM | > 256 µM | – | – | – | – | –
32 | CC(C)[C@@H](C)/C=C/[C@@H](C)[C@H]1CC[C@@H]2[C@]1(C)CC[C@H]1[C@]23C=C[C@]2(C[C@@H](O)CC[C@]12C)OO3 [Compound 33, Ergosterol peroxide] | – | – | – | > 256 µM | > 256 µM | > 256 µM | > 256 µM | –
33 | O=Cc1c[nH]c2ccccc12 [Compound 13, Indole-3-carbaldehyde] | – | – | – | > 256 µM | > 256 µM | > 256 µM | > 256 µM | –
34 | O=C(O)C(=O)Cc1c[nH]c2ccccc12 [Compound 15, Indole-3-pyruvic acid] | – | – | – | > 256 µM | > 256 µM | > 256 µM | > 256 µM | –
